Values after ≈ are worked out from the molar mass of the structure shown.
Assays:
[1] = system: A. niger; assay: Minimum Inhibitory Concentration (MIC), RPMI medium; assay type: cell-based; settings: Aspergillus niger, >80% growth inhibition
Description: (§1) Between 1 and 5 mgs of the compound were accurately weighed out into a sterile Eppendorf tube. The compound was dissolved in DMSO to give a solution containing 5 mg/mL. Tubes were stored at −20° C. until required.
(§2) On the day of testing thawed solutions were vortex mixed to ensure homogeneity. 30 μL of solution was removed and added to 570 μL of sterile water in a separate sterile Eppendorf. The thoroughly mixed solution was used to prepare a series of doubling dilutions in water, in a deep well plate. Thirteen replicate plates were prepared using a Minitrak by aspirating 20 μL from each well into eleven clear polystyrene 96 well plates.
(§3) Spores of Aspergillus and Scedosporium were harvested from cultures grown on Sabarauds agar for 5 days, and resuspended in PBS/Tween 80 to approx 1×10^7 cfu/mL. Each organism suspension was diluted in RPMI medium, containing 2% glucose and 0.135 M MOPS buffer (pH 7.0) to 0.5-2×10^4 cfu/mL. 80 μL of an organism suspension was added to each well of the plate containing drug dilutions.
(§4) This produced MIC plates with a drug range 50-0.05 mg/L and organism inocula of 1-2×10^4 cfu/mL. All plates were incubated for 24-48 h at 35° C. Growth was assessed by monitoring the optical density at 485 nm for each well. The MIC of a compound is the lowest drug concentration that inhibits growth of an organism by >80% compared with a drug free control.

[2] = system: Scedosporium species 15849; assay: as above; assay type: cell-based
Description: as §1, §2, §3, §4

[3] = system: A. terreus 49; assay: as above; assay type: cell-based; settings: Aspergillus terreus, >80% growth inhibition
Description: as §1, §2, §3, §4

[4] = system: Scedosporium apiospermum 451; assay: as above; assay type: cell-based
Description: as §1, §2, §3, §4

[5] = system: A. fumigatus 210; assay: as above; assay type: cell-based; settings: Aspergillus fumigatus, >80% growth inhibition
Description: as §1, §2, §3, §4

[6] = system: Scedosporium apiospermum 8353; assay: as above; assay type: cell-based
Description: as §1, §2, §3, §4

[7] = system: A. fumigatus; assay: as above; assay type: cell-based; settings: Aspergillus fumigatus, >80% growth inhibition
Description: as §1, §2, §3, §4

[8] = system: A. terreus; assay: as above; assay type: cell-based; settings: Aspergillus terreus, >80% growth inhibition
Description: as §1, §2, §3, §4

[9] = system: Scedosporium prolificans 206; assay: as above; assay type: cell-based; settings: Lomentospora prolificans
Description: as §1, §2, §3, §4

[10] = system: Scedosporium prolificans 18389; assay: as above; assay type: cell-based; settings: Lomentospora prolificans
Description: as §1, §2, §3, §4

[11] = system: Scedosporium apiospermum 7935; assay: as above; assay type: cell-based
Description: as §1, §2, §3, §4

[12] = system: Scedosporium apiospermum 13486; assay: as above; assay type: cell-based; settings: for MIC: Scedosporium apiospermum, 13486
Description: as §1, §2, §3, §4

[13] = system: Scedosporium prolificans 6322; assay: as above; assay type: cell-based; settings: Lomentospora prolificans
Description: as §1, §2, §3, §4

[14] = system: A. flavus; assay: as above; assay type: cell-based; settings: Aspergillus flavus, >80% growth inhibition
Description: as §1, §2, §3, §4

[15] = system: Scedosporium apiospermum 15848; assay: as above; assay type: cell-based
Description: as §1, §2, §3, §4

[16] = system: Scedosporium apiospermum 4883; assay: as above; assay type: cell-based
Description: as §1, §2, §3, §4

[17] = system: A. fumigatus strain A1163; assay: Murine survival model of Aspergillus fumigatus infection (survival, kidney burden, serum galactomannan); assay type: in vivo, male CD-1 mice; settings: positive control; 10 mg/kg b.i.d. by the oral route; A. fumigatus infected mice
Description: Murine survival models are frequently used to assess the efficacy of antifungal drugs against Aspergillus. The models used in the development of Example 1 were carried out at Euprotec Ltd (Manchester) a contract research organisation (CRO) with extensive experience in the evaluation of antifungal drugs. The typical model involves the use of groups of 6-10 male CD-1 mice per treatment group. Mice are immunosuppressed with 200 mg/kg cyclophosphamide injected intraperitoneal 3 days prior to infection. A. fumigatus strain A1163 is cultured on Sabourauds agar for 4-6 days at 35° C. Spores are harvested in phosphate buffered saline (PBS)/Tween, the suspension diluted and the number of spores enumerated. Mice are then infected with an intravenous injection of A. fumigatus spores given through the lateral tail vein. The typical inoculum is 6-8×10^4 cfu/mouse and is sufficient to kill all untreated animals by Day 4-6. The animals die of IA and Aspergillus organisms can be detected in many body tissues. Treatment is typically commenced soon after infection but delays of up to 24 h following infection produce a more challenging model. Treatment is continued for 7-9 days. Treatment may be up to 3 times daily using an oral dosing. Following cessation of treatment, animals are observed for 1-2 days, and then sacrificed. Relevant controls treated with oral drug-free vehicle are always included; ideally there should be no survivors in this group. A positive control consisting of an antifungal drug such as Reference Example 10 was used. This compound consistently produces 100% survival at doses of 10 mg/kg b.i.d. dosed by the oral route. Most models are run as temporary neutropenic models where only a single dose of cyclophosphamide is administered.
The fungal burden in the kidney can be determined on animals surviving to the end of the study and this can help provide efficacy discrimination between groups where all animals survive. Tissue burdens are carried out by removing the kidneys from animals when they are culled at the end of the study. These are homogenised in saline and plated onto Sabourauds agar and incubated at 35° C. for 72 h. Aspergillus colonies are counted and the amount of aspergillus per gram of kidney calculated. The results are expressed as colony forming units per gramme (cfu/g). […] However, data from studies where tissue burden has been carried out on untreated animals at day 4 or 5 has shown that tissue burdens are typically in excess of 20,000 cfu/g and may exceed 100,000 cfu/g in some studies.
In some of the survival studies described below serum samples were collected from surviving mice at the end of the study or on mice that succumbed to infection during the study to examine the effect of Example 1 on galactomannan levels and to see if there was a relationship between galactomannan levels and survival.
The galactomannan assays were carried out on serum samples that had been stored frozen at −80° C. Samples were thawed and assayed using a Platelia Aspergillus Ag enzyme-linked immunosorbent assay (ELISA) kit (Biorad). The assay was modified slightly to take into account the small sample volumes available from mice. If assay results were high a repeat test was carried out on a sample diluted in normal mouse serum. The amount of galactomannan in a sample is presented as a galactomannan index. The mean galactomannan index for each group was calculated and is presented graphically against each treatment regimen.
The survival study carried assessed the dose response of Example 1. Example 1 was dosed orally to A. fumigatus infected mice at 2 dose levels 10 mg/kg b.i.d. and 3 mg/kg b.i.d. Therapy was initiated at 24 h post infection and therapy continued for 8 days. At the end of the study kidney burdens were measured on surviving animals. In addition serum samples were taken at the end of the study from all surviving animals and from each animal that died during the course of the study. […]

[18] = system: L. prolificans FMR 3569; assay: Lomentospora prolificans FMR 3569 disseminated infection model (survival, tissue burden); assay type: in vivo, Male OF-1 mice; settings: VRC 25 mg/kg p.o. QD; Example 1 20 mg/k p.o. BID; from day 1 after challenge for 9 days
Description: L. prolificans (also known as Scedosporium prolificans or S. prolificans) was grown on Potato Dextrose Agar (PDA) for 5 days at 35° C. On the day of infection, cultures were flooded with sterile saline and filtered through sterile gauze to remove clumps of conidia and hyphae. The resulting suspensions were adjusted by haemocytometer count and by serial plating to confirm viability.
Male OF-1 mice with a mean weight of 30 g were used in the experiment. Mice were housed in standard boxes with food and water ad libitum.
Mice were rendered neutropenic two days prior to infection by an intraperitoneal (i.p.) injection of 200 mg/kg of cyclophosphamide, and once every 5 days thereafter (Clemons et al, 2005).
Mice were challenged with 5×10^4 CFU/animal of L. prolificans FMR 3569, in a volume of 0.2 ml of sterile saline into the lateral tail vein.
Treatments consisted of (a) voriconazole (VRC) (Vfend; Pfizer S. A., Madrid, Spain) at 25 mg/kg p.o, by gavage QD; (b) Example 1 at 20 mg/k, p.o, by gavage BID; and (c) no treatment. From 3 days before infection, mice that received VRC were given grapefruit juice instead of water (Sugar & Liu, 2001). All treatments began 1 day after challenge, and the therapy lasted for 9 days. Controls received no treatment.
For survival studies groups of 10 mice were randomly established for each therapy. Mortality was recorded daily until the end of the experiment. […]

MIC [1] | MIC [3] | MIC [5] | MIC [7] | MIC [8] | MIC [14] | Compound | MIC [2] | MIC [4] | MIC [6] | MIC [9] | MIC [10] | MIC [11] | MIC Scedosporium apiospermum 13486 [12] | MIC [12] | MIC [13] | MIC [15] | MIC [16] | survival [17] | survival rates compared with the control (FIG. 7) [18]
0.04 to 0.06 µg/mL (≈ 0.0738 to 0.111 µM) | 0.04 to 0.06 µg/mL (≈ 0.0738 to 0.111 µM) | 0.04 to 0.06 µg/mL (≈ 0.0738 to 0.111 µM) | 0.04 to 0.06 µg/mL (≈ 0.0738 to 0.111 µM) | 0.04 to 0.06 µg/mL (≈ 0.0738 to 0.111 µM) | 0.04 to 0.06 µg/mL (≈ 0.0738 to 0.111 µM) | Cc1cc(C)nc(N2CCN(c3ccc(NC(=O)C(=O)c4c(-c5ccccc5)cc(C)n4C)c(Cl)c3)CC2)c1 [Ref. Example 8, N-{2-Chloro-4-[4-(4,6-dimethyl-pyridin-2-yl)-piperazin-1-yl]-phenyl}-2-(1,5-dimethyl-3-phenyl-1H-pyrrol-2-yl)-2-oxo-acetamide] |  |  |  |  |  |  |  |  |  |  |  |  | 
0.04 to 0.06 µg/mL (≈ 0.0738 to 0.111 µM) | 0.04 to 0.06 µg/mL (≈ 0.0738 to 0.111 µM) | 0.04 to 0.06 µg/mL (≈ 0.0738 to 0.111 µM) | 0.04 to 0.06 µg/mL (≈ 0.0738 to 0.111 µM) | 0.04 to 0.06 µg/mL (≈ 0.0738 to 0.111 µM) | 0.04 to 0.06 µg/mL (≈ 0.0738 to 0.111 µM) | Cc1cc(C)nc(N2CCN(c3ccc(NC(=O)C(=O)c4c(-c5ccccc5)cc(C)n4C)cc3Cl)CC2)c1 [Ref. Example 9, N-{3-Chloro-4-[4-(4,6-dimethyl-pyridin-2-yl)-piperazin-1-yl]-phenyl}-2-(1,5-dimethyl-3-phenyl-1H-pyrrol-2-yl)-2-oxo-acetamide] |  |  |  |  |  |  |  |  |  |  |  |  | 

Continued, compound first:

Compound | MIC [1] | MIC [3] | MIC [5] | MIC [7] | MIC [8] | MIC [14] | MIC [2] | MIC [4] | MIC [6] | MIC [9] | MIC [10] | MIC [11] | MIC Scedosporium apiospermum 13486 [12] | MIC [12] | MIC [13] | MIC [15] | MIC [16] | survival [17] | survival rates compared with the control (FIG. 7) [18]
Cc1cc(-c2ccccc2)c(C(=O)C(=O)Nc2ccc(N3CCN(c4ccccn4)CC3)cc2)n1C [Ref. Example 6, 2-(1,5-Dimethyl-3-phenyl-1H-pyrrol-2-yl)-2-oxo-N-[4-(4-pyridin-2-yl-piperazin-1-yl)-phenyl]-acetamide] | > 0.06 µg/mL | 0.04 to 0.06 µg/mL (≈ 0.0834 to 0.125 µM) | 0.04 to 0.06 µg/mL (≈ 0.0834 to 0.125 µM) | 0.04 to 0.06 µg/mL (≈ 0.0834 to 0.125 µM) | 0.04 to 0.06 µg/mL (≈ 0.0834 to 0.125 µM) | 0.04 to 0.06 µg/mL (≈ 0.0834 to 0.125 µM) | > 0.06 µg/mL | > 0.06 µg/mL | > 0.06 µg/mL | > 0.06 µg/mL | > 0.06 µg/mL | > 0.06 µg/mL | F (a grade of F represents an MIC of greater than 0.06 mg/L) | > 0.06 µg/mL | > 0.06 µg/mL | > 0.06 µg/mL | > 0.06 µg/mL |  | 
Cc1cc(C)nc(N2CCN(c3ccc(NC(=O)C(=O)c4c(-c5ccccc5)cc(C)n4C)cc3)CC2)c1 [Ref. Example 10, 2-(1,5-Dimethyl-3-phenyl-1H-pyrrol-2-yl)-N-{4-[4-(4,6-dimethyl-pyridin-2-yl)-piperazin-1-yl]-phenyl}-2-oxo-acetamide] | > 0.06 µg/mL | 0.02 to 0.04 µg/mL (≈ 0.0394 to 0.0788 µM) | 0.02 to 0.04 µg/mL (≈ 0.0394 to 0.0788 µM) | 0.02 to 0.04 µg/mL (≈ 0.0394 to 0.0788 µM) | 0.02 to 0.04 µg/mL (≈ 0.0394 to 0.0788 µM) | 0.04 to 0.06 µg/mL (≈ 0.0788 to 0.118 µM) | > 0.06 µg/mL | > 0.06 µg/mL | 0.04 to 0.06 µg/mL (≈ 0.0788 to 0.118 µM) | > 0.06 µg/mL | > 0.06 µg/mL | > 0.06 µg/mL | F (a grade of F represents an MIC of greater than 0.06 mg/L) | > 0.06 µg/mL | 0.04 to 0.06 µg/mL (≈ 0.0788 to 0.118 µM) | > 0.06 µg/mL | 0.02 to 0.04 µg/mL (≈ 0.0394 to 0.0788 µM) | 100% | 
C[C@@H](c1ncncc1F)[C@](O)(Cn1cncn1)c1ccc(F)cc1F [VRC, voriconazole] |  |  |  |  |  |  |  |  |  |  |  |  |  |  |  |  |  |  | no significant increase
